{"source": "paper PMC4856767", "about": "(Cell Research, 2016)", "key": {"PXL2^LRR": {"tested_on": "PXL2^LRR", "assay": "In vitro GST pull-down, PXL2^LRR", "assay_type": "binding, Arabidopsis", "conditions": "GS4B resin, wash 10 mM Bis-Tris pH 6.0, 100 mM NaCl; SDS-PAGE, Coomassie blue; Figure 1A"}, "PXL1^LRR": {"tested_on": "PXL1^LRR", "assay": "In vitro GST pull-down, PXL1^LRR", "assay_type": "binding, Arabidopsis", "conditions": "GS4B resin, wash 10 mM Bis-Tris pH 6.0, 100 mM NaCl; SDS-PAGE, Coomassie blue; Figure 1A"}, "[1]": {"target": "T1, extracellular LRR domain of PXY (PXY^LRR, residues 1-647) (Arabidopsis, UniProt Q9FII5 30-647)", "T1 sequence": "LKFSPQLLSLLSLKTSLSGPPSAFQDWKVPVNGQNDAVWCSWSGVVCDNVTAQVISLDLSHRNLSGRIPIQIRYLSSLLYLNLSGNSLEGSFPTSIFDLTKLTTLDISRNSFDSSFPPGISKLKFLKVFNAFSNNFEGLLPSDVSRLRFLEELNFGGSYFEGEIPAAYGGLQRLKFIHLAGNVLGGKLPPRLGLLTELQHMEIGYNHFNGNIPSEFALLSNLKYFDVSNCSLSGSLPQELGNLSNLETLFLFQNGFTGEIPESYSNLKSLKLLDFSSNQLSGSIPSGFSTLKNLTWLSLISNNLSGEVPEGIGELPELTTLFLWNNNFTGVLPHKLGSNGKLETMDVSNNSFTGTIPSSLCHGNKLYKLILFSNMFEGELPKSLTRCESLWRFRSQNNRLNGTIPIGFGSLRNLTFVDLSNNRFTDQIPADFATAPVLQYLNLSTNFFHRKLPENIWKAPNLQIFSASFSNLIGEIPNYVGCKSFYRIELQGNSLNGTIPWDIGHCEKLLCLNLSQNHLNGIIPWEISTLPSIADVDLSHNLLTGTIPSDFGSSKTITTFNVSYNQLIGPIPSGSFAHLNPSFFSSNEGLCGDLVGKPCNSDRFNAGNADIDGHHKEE", "assay": "pull-down"}, "[2]": {"target": "T1, extracellular LRR domain of PXY …", "assay": "ITC"}}, "note": "“Also recorded” adds a separate entry of the source. No end group written: not given here."}
{"molecule": "GST-TDIF: GST tagged-TDIF protein expressed in E. coli strain BL21 (DE3) (HEVPSGPNPISN; also: GST tag, end not given here)", "values": [{"measurement": "interaction with PXL2^LRR in pull-down", "setting": "PXL2^LRR", "value": "can pull-down; also recorded: much lower affinities"}, {"measurement": "interaction with PXL1^LRR in pull-down", "setting": "PXL1^LRR", "value": "can pull-down; also recorded: much lower affinities"}]}
{"molecule": "HEVPSGPNPISN", "note": "[recombinant GST-TDIF]", "values": [{"measurement": "binding result", "setting": "[1]", "value": "binds"}]}
{"molecule": "REVPSGPNPISN", "note": "[synthetic mutant peptide TDIF^H1R]", "values": [{"measurement": "Kd", "setting": "[2]", "value": "~68", "unit": "nM"}]}
